Data taken from publication PMC6749294, “Comparison of the Utility of RP-TLC Technique and Different Computational Methods to Assess the Lipophilicity of Selected Antiparasitic, Antihypertensive, and Anti-inflammatory Drugs” (Molecules, 2019).
Read-outs that look alike come from different tables or passages of the source.

Assays:
[1] = RP-TLC lipophilicity on RP-18F254 plates (Soczewiński-Wachtmeister's and Ościk's equations); assay type: physicochemical; conditions: for RMWO(m) / RMWO(a): Ościk's equation; for RMWO(m) / RMWS(m) / φ0(m): methanol-water mobile phase; for RMWO(m) / RMWS(a) / RMWS(m) / RMWO(a): silica gel RP-18F254; for RMWS(a) / RMWS(m): Soczewiński-Wachtmeister's equation; for RMWS(a) / φ0(a) / RMWO(a): acetone-water mobile phase; for φ0(a) / φ0(m): φ0 = RMWS/S (Equation 6)
Experimental: The chromatographic analysis was carried on RP-18F254 plates (Art.1.05559, E. Merck, Darmstadt, Germany). The solutions of the investigated compounds were spotted separately onto chromatographic plates using precise micropipettes in a quantity of 5 µL each.
The chromatograms were developed using the mixtures of methanol-water and acetone-water in different volume compositions, as follows:
For antiparasitic drugs: • - the content of methanol was gradually varied by 10% (v/v) from 20–100 (%, v/v), • - the content of acetone was gradually varied by 10% (v/v) from 10–100 (%, v/v).
In the case of antihypertensive drugs, the content of methanol and acetone was gradually varied by 5% (v/v) from 60–100 (%, v/v).
For non-steroidal anti-inflammatory drugs: • - the content of methanol was gradually varied by 5% (v/v) from 60–100 (%, v/v), • - the content of acetone was gradually varied by10% (v/v) from 20–100 (%, v/v).
Next, the chamber was saturated with solvent vapor for 20 min. The chromatograms were developed at room temperature, e.g., 22 ± 1 °C. The development distance was 75 mm. The plates were dried at room temperature, e.g., 22 ± 1 °C. Each chromatogram was done in triplicate.
Densitometric scanning was done using a TLC Scanner 3 with WinCATS 1.4.2 software manufactured by Camag (Muttenz, Switzerland) in the reflectance/absorbance mode.
Densitometric scanning was performed at a respective absorption maximum for the analyzed drugs. The slit dimensions were 10.00 × 0.40 mm, Macro; the optimized optical system was light; the scanning speed was 20 mm/s; the data resolution was 100 μm/step; the measurement type was remission; the measurement mode was absorption; and the optical filter was second order. Each track was scanned three times, and a baseline correction (lowest slope) was used.
In order to determine the lipophilicity parameter based on Soczewiński-Wachtmeister′s procedure, the RF values obtained under the applied chromatographic conditions were converted into RM values according to the expression:(4) RM=log1/RF−1 The linear relationship between RM and the volume content of methanol and acetone in the mobile phase (φ) permits an extrapolation of the calculated RM values to the zero concentration of methanol and acetone in accordance with Soczewiński-Wachtmeister′s Equation (5). […] (5) RM=RMWS−Sφ where: RM is the RM value of the studied compound, RMWS is the RM value extrapolated to zero concentration of methanol and acetone (organic modifier) in the used mobile phase, i.e., methanol-water and acetone-water, respectively, S is the slope of the regression plot (see Supplementary Materials), and φ is the volume fraction of methanol and acetone in the mobile phase. In addition to this, on the basis of the said plot, i.e., Soczewiński-Wachtmeister′s equation, another chromatographic descriptor (φ0) has been calculated according to the following formula (Equation (6)): (6) φ0 = RMWS/S where: RMWS is the chromatographic parameter obtained by using Soczewiński-Wachtmeister’s equation in accordance with Equation (5), and S is the regression slope.
The measurable lipophilicity value expressed as RMWO was determined according to Ościk’s equation [29, 30, 32]:(7) Gxorg=xorg1−xorg/RM−xorgRMorg−1−xorgRMWO=axorg+b where: RM, RMorg, and RMWO are the solute retention factors in the mixed mobile phase, pure organic solvent, and water, respectively; xorg is the molar fraction of the organic solvent in the mobile phase; a and b are constants in the linear correlation between G(xorg) and xorg in the used mobile phase.

[2] = design: method as in PMID 12972078; conditions: RP-HPLC, cited from earlier work; for log kwODS: ODS column μBondapak C18; for log kw IAM: immobilized artificial membrane (IAM.PC.MG) column
[3] = Prediction of logPexp from φ0(a) with Equation (3); assay type: physicochemical; conditions: chromatography with acetone-water mobile phase; calculated from φ0(a) with Equation (3); read-out: predicted logPexp
Description: The continuation of our lipophilicity study of fifteen biocompounds belonging to the three groups of drugs and the determination of another lipophilicity descriptor, namely φ0, in accordance with Equation (6), allowed us to obtain the two new lipophilicity parameters φ0(a) and φ0(m) for a proper used mobile phase, i.e., acetone-water (a) and methanol-water (m), respectively. What is important is that the calculation of this parameter was possible because a satisfactory linear relationship between both, i.e., the intercept and slope (RMWS and S), in each obtained Soczewiński-Wachtmeister’s equation was achieved (r > 0.98). In order to estimate the utility of these parameters for the prediction of the theoretical as well as experimental parameter of the lipophilicity of a large group of investigated compounds, a correlation matrix between all previously described (thus chromatographic) parameters, as well as the computed and experimental partition coefficient, was done. The results of the correlation analysis indicate that among all φ0 values the best is the one obtained for acetone-water, which is to say φ0(a). […]
This fact confirms the potential utility of the additionally calculated chromatographic parameter φ0(a) to determine the partition coefficient of all examined compounds. It can be very useful in the case of the lack of this value, like for example for the experimental logP of nilvadipine, lacidipine and carprofen. A test was performed on Equation (3) to determine the values of logPexp for the three abovementioned compounds. The results of the predicted logPexp were: 3.65 for nilvadipine, 3.96 for lacidipine and 3.54 for carprofen, respectively. It can be observed that the newly obtained logPexp values are in good agreement with the other previously described theoretical logP of these compounds. They are placed in the similar range of logP values.

[4] = n-octanol-water, cited from earlier work
[5] = cited from earlier work; for Rm0: RP-18F254 plates, acetonitrile-water; for logP: calculated from regression curve Rm0 = f(logP)
[6] = design: method as in PMID 9809446; conditions: methanol-water, cited from earlier work
[7] = Experimental n-octanol-water partition coefficient (logPexp) from literature and databases; assay type: physicochemical; conditions: average of the differing literature logPexp values (± spread)
Description: The next stage of this paper was a comparison of all obtained RMWS and RMWO parameters calculated using […] equations with theoretical and experimental logP values obtained in an n-octanol-water system.

[8] = RP-18WF254 plates, Soczewiński-Wachtmeister's equation

Compound	RMWO(m) [1]	RMWS(a) [1]	RMWS(m) [1]	φ0(a) [1]	φ0(m) [1]	log kwODS [2]	log kw IAM [2]	chromatographic logP [3]	RMWO(a) [1]	logPexp ([4]; ref 33)	logPexp ([4]; ref 6)	Rm0 [5]	logP [5]	RMO ([6]; Nano-Sil CNF254 plates)	RMO [6, 8]	logPexp ([4]; ref 36)	logPexp ([4]; ref 42)	logP [7]	logPexp ([4]; ref 41)
CC(C(=O)O)c1ccc2c(c1)[nH]c1ccc(Cl)cc12 (centres unmarked) [Carprofen, carprofen]	2.77	2.56	2.34	0.754	0.820	3.85	1.81	3.54											
Cc1ncc([N+](=O)[O-])n1CC(C)O (centres unmarked) [Secnidazole, secnidazole]	1.72	0.95	1.26						1.21	0.22 [33]									
COC(=O)C1=C(C)NC(C)=C(C(=O)OC(C)C)C1c1cccc2nonc12 (centres unmarked) [Isradipine, isradipine]	5.08	3.54	3.13	0.751	0.837				5.67		4.28 [6]								
CC(C(=O)O)c1cccc(C(=O)c2ccccc2)c1 (centres unmarked) [Ketoprofen, ketoprofen]	3.76	1.26	1.47	0.640	0.687	2.83	1.02					1.8491	2.66	2.31	1.74				
CC(C(=O)O)c1ccc(-c2ccccc2)c(F)c1 (centres unmarked) [Flurbiprofen, flurbiprofen]	2.26	1.87	1.98	0.930	0.771	2.91	1.58					2.5076	3.82			4.16 [36]	3.84 [42]	4	
CCOC(=O)C1=C(C)NC(C)=C(C(=O)OC)C1c1cccc(Cl)c1Cl (centres unmarked) [Felodipine, felodipine]	6.57	3.75	4.27	0.775	0.929				5.57		3.86 [6]							4.16	4.46 [41]
COC(=O)C1=C(C#N)NC(C)=C(C(=O)OC(C)C)C1c1cccc([N+](=O)[O-])c1 (centres unmarked) [Nilvadipine, nilvadipine]	5.57	4.07	3.66	0.764	0.886			3.65	6.28										
COc1ccc2c(c1)c(CC(=O)O)c(C)n2C(=O)c1ccc(Cl)cc1 [Indomethacin, indomethacin]	4.08	2.57	2.19	0.747	0.790									0.52	2.62	4.27 [36]	4.10 [42]		
